Reference: patent US20250326785A1, “SODIUM SALT AND ETHANOLAMINE SALT OF 23-HYDROXYTORMENTIC ACID” (HUYABIO International, LLC, priority 2024, published 2025)

Key:
[1] = Hydration study in methanol/water aw 0.1, 0.5 and 0.9; type: physicochemical
Text: Hydration studies of ethanolamine salt.

[2] = Salt disproportionation study (slurry in water, XRPD of solids, pH of mother liquor); type: physicochemical
Description: The pH of the filtered mother liquor was 9.77.
Salt disproportionation studies of ethanolamine salt. […] The pH of the filtered mother liquor was 8.65.
Method: 40 mg of sodium salt of HBI-3808 having a XRPD of Pattern 2, was weighed into a 2 mL push cap vial and a stirrer bar added. 0.2 mL of water was added to the vial and the experiment was stirred for ca. 24 h at 25° C. After 24 h the slurry was filtered by centrifuge filtration and the recovered solids were analyzed by XRPD. The pH of the filtered mother liquor was measured.

[3] = Dynamic vapor sorption (DVS) analysis; type: physicochemical
Description: GC analysis indicated residual solvent contents of 2847 ppm methanol; and 27 ppm TBME. […] No residual methanol or TBME was detected due to signal over-lap. […] TG-DSC analysis indicated two weight losses. The first weight loss of 2.3 wt. % was observed between 20-170° C. […] In the DSC thermogram, three endothermic events were observed (FIG. 17I). […] FT-IR (FIG. 17J) and Raman spectra (FIG. 17K) were recorded for reference. […] XRPD pattern of the ethanolamine salt was retained post-DVS (FIG. 17N). […] However, at the end of the experiment the solids on the microscope slide had discolored (FIG. 17O).

[4] = Stability study at 25° C./60% RH, 40° C./75% RH and 60° C. (XRPD, HPLC purity, impurity tracking); settings: for XRPD: * = crystalline salt; for HPLC: based on free acid
Text: Stability of HBI-3808 Sodium Salt Pattern 2 was studied over 13 weeks.
Table 2F presents impurity tracking results from a 13-week stability study of HBI-3808 sodium salt of Pattern 2. […]

[5] = 25° C./60% RH (open vial), 13 Weeks
[6] = 25° C./60% RH (open vial), 1 Week
[7] = 25° C./60% RH (open vial), 2 Weeks
[8] = 25° C./60% RH (open vial), 4 Weeks
[9] = 25° C./60% RH (open vial), 8 Weeks
[10] = 40° C./75% RH (open vial), 13 Weeks
[11] = 40° C./75% RH (open vial), 1 Week
[12] = 40° C./75% RH (open vial), 2 Weeks
[13] = 40° C./75% RH (open vial), 4 Weeks
[14] = 40° C./75% RH (open vial), 8 Weeks

**Q.** For C[C@@H]1CC[C@]2(C(=O)O)CC[C@]3(C)C(=CC[C@@H]4[C@@]5(C)C[C@@H](O)[C@H](O)[C@@](C)(CO)[C@@H]5CC[C@]43C)[C@@H]2[C@]1(C)O.NCCO [ethanolamine salt of HBI-3808, ETHANOLAMINE SALT OF 23-HYDROXYTORMENTIC ACID], which “XRPD of solids recovered at the end of the experiment” value [1] is on record?
**A.** The value was “consistent with ethanolamine salt”.

**Q.** And the “pH of the filtered mother liquor” value [2]?
**A.** Its value is 8.65.

**Q.** And the “XRPD of recovered solids” value ([2]; ca. 24 h at 25° C.)?
**A.** Its value is “no salt disproportionation had occurred”.

**Q.** And the “XRPD of recovered material post-DVS” value [3]?
**A.** Its value is “retained”.

**Q.** And the “water (mass) uptake” value ([3]; at 80% RH/25° C. (Pattern 2: second DVS cycle))?
**A.** Its value is 3.0 wt. %.

**Q.** And the hygroscopicity ([3]; from water uptake at 80% RH, 25° C.)?
**A.** The hygroscopicity was “slightly hygroscopic”.

**Q.** And the HPLC/ % area [4, 5]?
**A.** Its HPLC/ % area is 97.4 % area.

**Q.** What about the XRPD [4, 6] of the same compound?
**A.** Its XRPD is 1*.

**Q.** And the HPLC [4, 6]?
**A.** Its HPLC is 97.3 % area.

**Q.** What about the XRPD [4, 7] of the same compound?
**A.** Its XRPD is 1*.

**Q.** And the HPLC [4, 7]?
**A.** The HPLC was 97.3 % area.

**Q.** And the XRPD [4, 8]?
**A.** Its XRPD is 1*.

**Q.** What about the HPLC [4, 8] of the same compound?
**A.** The HPLC was 97.5 % area.

**Q.** And the XRPD [4, 9]?
**A.** The XRPD was 1*.

**Q.** And the HPLC [4, 9]?
**A.** Its HPLC is 97.0 % area.

**Q.** What about the XRPD [4, 5] of the same compound?
**A.** Its XRPD is 1*.

**Q.** What about the HPLC [4, 5] of the same compound?
**A.** The HPLC was 97.3 % area.

**Q.** What about the “RRT 0.801 impurity” value ([4]; 25° C./60% RH, 1 week) of the same compound?
**A.** Its value is 0.10 % area.

**Q.** And the “RRT 0.970 impurity” value ([4]; 25° C./60% RH, 1 week)?
**A.** The value was 0.10 % area.

**Q.** And the “RRT 1.000 (HBI-3808)” value ([4]; 25° C./60% RH, 1 week)?
**A.** Its value is 97.31 % area.

**Q.** What about the “RRT 1.025 (Isomer of HBI-3808)” value ([4]; 25° C./60% RH, 1 week) of the same compound?
**A.** Its value is 2.48 % area.

**Q.** What about the “Total Impurities” value ([4]; 25° C./60% RH, 1 week) of the same compound?
**A.** Its value is 2.69 % area.

**Q.** What about the “RRT 0.970 impurity” value ([4]; 25° C./60% RH, 2 weeks) of the same compound?
**A.** Its value is 0.12 % area.

**Q.** What about the “RRT 1.000 (HBI-3808)” value ([4]; 25° C./60% RH, 2 weeks) of the same compound?
**A.** The value was 97.29 % area.

**Q.** And the “RRT 1.025 (Isomer of HBI-3808)” value ([4]; 25° C./60% RH, 2 weeks)?
**A.** Its value is 2.39 % area.

**Q.** What about the “RRT 1.935 impurity” value ([4]; 25° C./60% RH, 2 weeks) of the same compound?
**A.** Its value is 0.20 % area.

**Q.** What about the “Total Impurities” value ([4]; 25° C./60% RH, 2 weeks) of the same compound?
**A.** Its value is 2.71 % area.

**Q.** What about the “RRT 0.970 impurity” value ([4]; 25° C./60% RH, 4 weeks) of the same compound?
**A.** Its value is 0.11 % area.

**Q.** What about the “RRT 1.000 (HBI-3808)” value ([4]; 25° C./60% RH, 4 weeks) of the same compound?
**A.** Its value is 97.47 % area.

**Q.** And the “RRT 1.025 (Isomer of HBI-3808)” value ([4]; 25° C./60% RH, 4 weeks)?
**A.** The value was 2.41 % area.

**Q.** What about the “Total Impurities” value ([4]; 25° C./60% RH, 4 weeks) of the same compound?
**A.** Its value is 2.53 % area.

**Q.** And the “RRT 0.970 impurity” value ([4]; 25° C./60% RH, 8 weeks)?
**A.** The value was 0.10 % area.

**Q.** And the “RRT 1.000 (HBI-3808)” value ([4]; 25° C./60% RH, 8 weeks)?
**A.** Its value is 96.99 % area.

**Q.** And the “RRT 1.025 (Isomer of HBI-3808)” value ([4]; 25° C./60% RH, 8 weeks)?
**A.** The value was 2.51 % area.

**Q.** What about the “RRT 1.767 impurity” value ([4]; 25° C./60% RH, 8 weeks) of the same compound?
**A.** Its value is 0.29 % area.

**Q.** And the “Total Impurities” value ([4]; 25° C./60% RH, 8 weeks)?
**A.** Its value is 3.01 % area.

**Q.** And the “RRT 0.801 impurity” value ([4]; 25° C./60% RH, 13 weeks)?
**A.** The value was 0.12 % area.

**Q.** What about the “RRT 1.000 (HBI-3808)” value ([4]; 25° C./60% RH, 13 weeks) of the same compound?
**A.** The value was 97.33 % area.

**Q.** What about the “RRT 1.025 (Isomer of HBI-3808)” value ([4]; 25° C./60% RH, 13 weeks) of the same compound?
**A.** Its value is 2.37 % area.

**Q.** And the “RRT 1.935 impurity” value ([4]; 25° C./60% RH, 13 weeks)?
**A.** The value was 0.19 % area.

**Q.** What about the “Total Impurities” value ([4]; 25° C./60% RH, 13 weeks) of the same compound?
**A.** The value was 2.67 % area.

**Q.** And the “RRT 1.000 (HBI-3808)” value ([4]; 25° C./60% RH, T = 0)?
**A.** The value was 97.82 % area.

**Q.** And the “RRT 1.025 (Isomer of HBI-3808)” value ([4]; 25° C./60% RH, T = 0)?
**A.** The value was 2.18 % area.

**Q.** What about the “Total Impurities” value ([4]; 25° C./60% RH, T = 0) of the same compound?
**A.** The value was 2.18 % area.

**Q.** What about the HPLC/ % area [4, 10] of the same compound?
**A.** The HPLC/ % area was 97.4 % area.

**Q.** And the XRPD [4, 11]?
**A.** The XRPD was 1*.

**Q.** What about the HPLC [4, 11] of the same compound?
**A.** Its HPLC is 97.3 % area.

**Q.** What about the XRPD [4, 12] of the same compound?
**A.** The XRPD was 1*.

**Q.** What about the HPLC [4, 12] of the same compound?
**A.** The HPLC was 97.3 % area.

**Q.** What about the XRPD [4, 13] of the same compound?
**A.** The XRPD was 1*.

**Q.** And the HPLC [4, 13]?
**A.** Its HPLC is 97.5 % area.

**Q.** And the XRPD [4, 14]?
**A.** Its XRPD is 1*.

**Q.** And the HPLC [4, 14]?
**A.** The HPLC was 96.9 % area.

**Q.** And the XRPD [4, 10]?
**A.** Its XRPD is 1*.

**Q.** And the HPLC [4, 10]?
**A.** Its HPLC is 97.4 % area.

**Q.** What about the “RRT 0.801 impurity” value ([4]; 40° C./75% RH, 1 week) of the same compound?
**A.** The value was 0.10 % area.

**Q.** And the “RRT 0.970 impurity” value ([4]; 40° C./75% RH, 1 week)?
**A.** Its value is 0.14 % area.

**Q.** And the “RRT 1.000 (HBI-3808)” value ([4]; 40° C./75% RH, 1 week)?
**A.** Its value is 97.28 % area.

**Q.** And the “RRT 1.025 (Isomer of HBI-3808)” value ([4]; 40° C./75% RH, 1 week)?
**A.** Its value is 2.48 % area.

**Q.** What about the “Total Impurities” value ([4]; 40° C./75% RH, 1 week) of the same compound?
**A.** The value was 2.72 % area.

**Q.** What about the “RRT 0.970 impurity” value ([4]; 40° C./75% RH, 2 weeks) of the same compound?
**A.** The value was 0.12 % area.

**Q.** What about the “RRT 1.000 (HBI-3808)” value ([4]; 40° C./75% RH, 2 weeks) of the same compound?
**A.** Its value is 97.26 % area.

**Q.** What about the “RRT 1.025 (Isomer of HBI-3808)” value ([4]; 40° C./75% RH, 2 weeks) of the same compound?
**A.** The value was 2.40 % area.

**Q.** And the “RRT 1.935 impurity” value ([4]; 40° C./75% RH, 2 weeks)?
**A.** Its value is 0.22 % area.

**Q.** And the “Total Impurities” value ([4]; 40° C./75% RH, 2 weeks)?
**A.** The value was 2.74 % area.

**Q.** What about the “RRT 0.970 impurity” value ([4]; 40° C./75% RH, 4 weeks) of the same compound?
**A.** The value was 0.11 % area.

**Q.** And the “RRT 1.025 (Isomer of HBI-3808)” value ([4]; 40° C./75% RH, 4 weeks)?
**A.** Its value is 2.41 % area.

**Q.** What about the “Total Impurities” value ([4]; 40° C./75% RH, 4 weeks) of the same compound?
**A.** The value was 2.52 % area.

**Q.** What about the “RRT 0.970 impurity” value ([4]; 40° C./75% RH, 8 weeks) of the same compound?
**A.** The value was 0.21 % area.
